Test results: US10426841B2, “Combination of drugs with protein-binding prodrugs” (VERGELL MEDICAL S.A., priority 2010, dated 2019)

Experiments:
[1] = system: human ovarian cancer xenografts (A2780); assay: Antitumor efficacy and tolerability in the ovarian carcinoma A2780 xenograft model; details: for toxic death: 8 mice per group; for RTV day 30 (relative tumor volume): * significant to Doxorubicin; for antitumor efficacy (in words): doxorubicin 2×8 mg/kg up to day 30
Procedure: In order to evaluate the in vivo antitumor efficacy of a combination of doxorubicin with DOXO-EMCH in tumor-bearing mice, a direct comparison was made with a group treated with doxorubicin (2×8 mg/kg body weight) or DOXO-EMCH (3×24 mg/kg body weight doxorubicin equivalents) at their respective MTDs. For the combination, a lower dose of doxorubicin (3×4 mg/kg body weight) was combined with a lower dose of DOXO-EMCH (3×12 mg/kg body weight doxorubicin equivalents) wherein the DOXO-EMCH was administered 6 h prior to doxorubicin on the respective days of administration (cf. Table 1).
Experimental Procedure. […] For in vivo testing, female NMRI: nu/nu mice (Taconic, Denmark) were used. The mice were held in individually ventilaged cages (IVC) under sterile and standardized environmental conditions (25±2° C. room temperature, 50±10% relative humidity, 12 hour light-dark-rhythm). They received autoclaved food and bedding (ssniff, Soest, Germany) and acidified (pH 4.0) drinking water ad libitum. A2780 tumor fragments were transplanted subcutaneously (s.c.) into the left flank region of anaesthetized mice (40 mg/kg i.p. Radenarkon, Asta Medica, Frankfurt, Germany) on day 0. Mice were randomly distributed to the experimental groups (8 mice per group). When the tumors were grown to a palpable size, treatment was initiated. Mice were treated intravenously (i.v.) with either glucose phosphate buffer (10 mM sodium phosphate, 5% D-(+)-glucose, pH 5.8), doxorubicin (2×8 mg/kg body weight), or DOXO-EMCH (3×24 mg/kg body weight doxorubicin equivalents), or a combination of DOXO-EMCH (3×12 mg/kg body weight doxorubicin equivalents) and doxorubicin (3×4 mg/kg body weight) with a 6 hour interval on the day of administration. DOXO-EMCH was dissolved in 10 mM sodium phosphate, 5% D-(+)-glucose, pH 5.8. The compounds were injected intravenously at weekly intervals on days 6 and 13 and on days 6, 13 and 20 for the remaining compounds. The injection volume was 0.2 ml/20 g body weight. Tumor size was measured twice weekly with a caliper-like instrument in two dimensions. Individual tumor volumes (V) were calculated by the formula V=(length×[width]2)/2 and related to the values on the first day of treatment (relative tumor volume, RTV). Statistical analysis was performed with the U-test (Mann and Whitney) with p<0.05. The body weight of mice was determined every 3 to 4 days.

[2] = Maximum tolerated dose in nude mice; format: in vivo; details: 2×12 mg/kg body weight
[3] = i.v., doxorubicin 8 mg/kg days 6, 13, DOXO-EMCH 24 mg/kg days 6, 13, 20, combination 4 + 12 mg/kg days 6, 13, 20
[4] = DOXO-EMCH 3×24 mg/kg, combination DOXO-EMCH 3×12 + doxorubicin 3×4 mg/kg

Structure (SMILES)	toxic death [1, 3]	body weight loss ([1]; DOXO-EMCH 3×24 mg/kg, after day 37, some animals died or were killed)	duration of tumor remissions [1, 4]	RTV day 20 (relative tumor volume) [1, 3]	RTV day 30 (relative tumor volume) [1, 3]	BWC [%] (body weight change) ([1]; day of value in brackets in the cell, i.v., doxorubicin 8 mg/kg days 6, 13, DOXO-EMCH 24 mg/kg days 6, 13, 20, combination 4 + 12 mg/kg days 6, 13, 20)	antitumor efficacy (in words) [1, 4]	toxicity at doses higher than MTD [2]
COc1cccc2c1C(=O)c1c(O)c3c(c(O)c1C2=O)CC(O)(C(CO)=NNC(=O)CCCCCN1C(=O)C=CC1=O)CC3OC1CC(N)C(O)C(C)O1 (stereo not drawn) [DOXO-EMCH, 6-maleimidocaproyl(hydrazone) derivative of doxorubicin]	0	over 30%	up to 37 days	0.2	0.1*	−31 (d37) %	pronounced antitumor effect	
COc1cccc2c1C(=O)c1c(O)c3c(c(O)c1C2=O)C[C@@](O)(C(=O)CO)C[C@@H]3O[C@H]1C[C@H](N)[C@H](O)[C@H](C)O1 [Doxorubicin, doxorubicin, reference compound]	0			7.4	23.9		moderate antitumor efficacy	unacceptable toxicity and mortality
